Assays:
[1] = tested on: EGFR positive (MDA MB 468 and A431) and EGFR negative (MCF 7) cells; test: Cellular binding analysis by flow cytometry; format: cell-based, human; settings: 100 nM, 60 min at 4° C., AF488-labeled detection antibody
[2] = Thermal unfolding by nanoDSF; format: physicochemical; settings: PBS pH 6.8, 20 to 95° C. at 1° C./min
Experimental: FIG. 10 Thermal stability of Fcabs and huFc control molecule. The first derivative of thermal unfolding curves (A) as well as the unfolding transition midpoints (Tm) (B) are shown. To determine thermal unfolding, Fcabs and huFc (PBS pH 6.8) were loaded into nanoDSF grade standard capillaries which were then transferred into a Prometheus NT.PLEX nanoDSF (NanoTemper Technologies) instrument. Samples were subjected to a linear thermal ramp from 20° C. to 95° C. at a slope of 1° C./min with simultaneous recording of fluorescence at 350 and 330 nm. Unfolding transition midpoints (Tm) were determined from the first derivative of the fluorescence ratio 350 nm/330 nm. All samples were measured in duplicates. n.d.—not detected
As a negative control, we included an unmodified human Fc (huFc) fragment. As EGFR-binding references, a Cetuximab-based full length IgG (C-IgG) and a Cetuximab-derived Fab (C-Fab) fragment, both equipped with a sortase A (SrtA) recognition motif (LPETG) at the C-terminal end of the light chain, were included. […] Moreover, we evaluated functional and selective cellular binding of the purified constructs (FIG. 11, FIG. 12). […] To ensure comparability between individual fluorescence intensities resulting from differently labeled constructs, the fluorescence signals were normalized. […]

In the case of “huFc: Modified human IgG1 Fc fragment (D265A), negative control, SEQ ID No. 7”, the cellular binding [1] is reported as “do not show any binding” and the “unfolding transition midpoint Tm,1” value [2] is reported as 66 °C.
